Laboratory results from PMC10829302 (BMC Microbiology, 2024).

Target: T1, tubulin (α/β heterodimer; β-tubulin) (Sus scrofa, UniProt P02554)
T1 construct: heterodimer of two closely related 55 kDa proteins (α and β tubulins), isolated from Porcine brain tissue; with α-tubulin
Experiment: tubulin polymerization assay with purified porcine brain tubulin (Cytoskeleton BK011P), positive control
Format: biochemical

T1 sequence (P02554 whole entry): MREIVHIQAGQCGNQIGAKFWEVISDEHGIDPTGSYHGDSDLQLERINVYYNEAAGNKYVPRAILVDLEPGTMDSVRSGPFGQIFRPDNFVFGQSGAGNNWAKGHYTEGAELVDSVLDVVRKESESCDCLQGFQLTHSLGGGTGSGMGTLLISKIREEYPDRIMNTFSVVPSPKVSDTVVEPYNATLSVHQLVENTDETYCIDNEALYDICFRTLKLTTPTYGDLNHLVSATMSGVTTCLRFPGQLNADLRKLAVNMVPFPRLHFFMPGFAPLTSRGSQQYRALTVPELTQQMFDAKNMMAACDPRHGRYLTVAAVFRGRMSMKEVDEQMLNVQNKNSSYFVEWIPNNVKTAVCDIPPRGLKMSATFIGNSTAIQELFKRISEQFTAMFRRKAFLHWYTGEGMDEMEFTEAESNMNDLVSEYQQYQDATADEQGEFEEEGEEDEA
T1 sequence (P02550 whole entry partner): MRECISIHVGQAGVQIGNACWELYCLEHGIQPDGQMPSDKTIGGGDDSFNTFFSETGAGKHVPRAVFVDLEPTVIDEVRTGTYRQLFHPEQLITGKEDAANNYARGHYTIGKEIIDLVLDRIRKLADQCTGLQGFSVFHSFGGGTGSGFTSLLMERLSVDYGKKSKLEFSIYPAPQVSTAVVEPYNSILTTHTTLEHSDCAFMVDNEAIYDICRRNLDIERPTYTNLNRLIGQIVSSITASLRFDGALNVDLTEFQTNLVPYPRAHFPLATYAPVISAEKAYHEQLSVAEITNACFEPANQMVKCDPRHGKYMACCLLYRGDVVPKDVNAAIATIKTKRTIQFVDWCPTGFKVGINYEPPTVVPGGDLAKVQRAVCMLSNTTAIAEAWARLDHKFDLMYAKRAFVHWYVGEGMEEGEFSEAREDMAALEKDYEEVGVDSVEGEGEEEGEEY

SMILES: CC(=O)O[C@H]1C(=O)[C@@]2(C)[C@H]([C@H](OC(=O)c3ccccc3)[C@]3(O)C[C@H](OC(=O)[C@H](O)[C@@H](NC(=O)c4ccccc4)c4ccccc4)C(C)=C1C3(C)C)[C@]1(OC(C)=O)CO[C@@H]1C[C@@H]2O [Paclitaxel]
- IC50: 2.34 µM
